Test [1] concerns the target Peroxisome proliferator-activated receptor gamma/Nuclear receptor coactivator 2 (Homo sapiens, UniProt P37231). The class given is functional.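 Note: agonist potency for raising coactivator recruitment to the receptor.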
Test [2] addresses Peroxisome proliferator-activated receptor gamma/Nuclear receptor coactivator 3 (Homo sapiens, UniProt P37231). The class given is functional.
Test [3] addresses Peroxisome proliferator-activated receptor gamma/Nuclear receptor coactivator 1 (Homo sapiens, UniProt P37231). The class given is functional.
Test [4] relates to Streptococcus. Nature of the test: GAS UMAA2166 growth inhibition – luminescence, BacTiterGlo, counter-screen for streptokinase expression inhibitor project, dose response (AID 1915).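 Note: potency for reduction of bacterial viability or growth.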 The class given is functional, organism-based. In general terms: Counterscreens check selectivity or assay interference.
Test [5] addresses T1, Streptokinase A (Streptococcus pyogenes serotype M1, UniProt P10520).
T1 sequence (P10520 whole entry): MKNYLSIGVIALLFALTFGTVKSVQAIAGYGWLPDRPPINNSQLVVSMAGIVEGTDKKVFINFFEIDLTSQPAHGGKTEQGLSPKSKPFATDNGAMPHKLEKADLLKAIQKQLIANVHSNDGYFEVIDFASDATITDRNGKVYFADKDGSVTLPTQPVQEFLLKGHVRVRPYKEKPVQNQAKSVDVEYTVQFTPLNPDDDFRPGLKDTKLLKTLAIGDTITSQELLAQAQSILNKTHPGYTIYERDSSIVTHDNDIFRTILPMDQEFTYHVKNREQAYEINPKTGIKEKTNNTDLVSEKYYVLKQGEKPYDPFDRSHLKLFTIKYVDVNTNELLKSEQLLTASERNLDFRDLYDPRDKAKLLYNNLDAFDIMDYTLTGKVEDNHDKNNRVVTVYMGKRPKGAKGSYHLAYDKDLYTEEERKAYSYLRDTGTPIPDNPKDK
In words: viability-normalized secreted streptokinase activity reduction – plasminogen activation absorbance, OD405, dose response (AID 1914).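 Note: secreted streptokinase activity via plasminogen activation per viability signal from cell pellet.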 The class given is functional, Streptococcus pyogenes M1 GAS.

Test [6] in a line: HPDE-C7 pancreatic duct cell viability loss – fluorescence, HTS (AID 430). Type of test: functional, cell-based. To be noted: Homo sapiens.
Test [7] has as its target T2, Coagulation factor XII (Homo sapiens, UniProt P00748).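 Note: activated factor XIIa alpha cleaving a fluorogenic AMC peptide substrate; inhibitor potency from loss of enzyme activity.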
T2 sequence (P00748 whole entry): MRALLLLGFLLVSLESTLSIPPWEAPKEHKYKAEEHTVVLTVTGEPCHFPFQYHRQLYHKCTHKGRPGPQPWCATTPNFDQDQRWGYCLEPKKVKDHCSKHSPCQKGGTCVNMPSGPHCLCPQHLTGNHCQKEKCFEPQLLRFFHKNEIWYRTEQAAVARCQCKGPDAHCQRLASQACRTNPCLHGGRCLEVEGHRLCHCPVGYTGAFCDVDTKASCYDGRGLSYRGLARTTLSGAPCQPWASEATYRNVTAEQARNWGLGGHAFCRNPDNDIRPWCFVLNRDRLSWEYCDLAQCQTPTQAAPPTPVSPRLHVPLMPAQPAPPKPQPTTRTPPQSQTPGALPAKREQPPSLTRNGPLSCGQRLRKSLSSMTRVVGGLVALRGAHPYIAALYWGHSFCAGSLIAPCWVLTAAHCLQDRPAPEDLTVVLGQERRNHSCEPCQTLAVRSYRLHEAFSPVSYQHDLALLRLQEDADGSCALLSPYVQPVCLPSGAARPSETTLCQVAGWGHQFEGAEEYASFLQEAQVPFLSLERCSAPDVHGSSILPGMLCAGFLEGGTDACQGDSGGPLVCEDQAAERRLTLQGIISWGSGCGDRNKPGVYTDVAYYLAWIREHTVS
The class given is functional.

Test [8] has as its target T3, Neuropeptide Y receptor type 2 (Homo sapiens, UniProt P49146).
T3 sequence (P49146 whole entry): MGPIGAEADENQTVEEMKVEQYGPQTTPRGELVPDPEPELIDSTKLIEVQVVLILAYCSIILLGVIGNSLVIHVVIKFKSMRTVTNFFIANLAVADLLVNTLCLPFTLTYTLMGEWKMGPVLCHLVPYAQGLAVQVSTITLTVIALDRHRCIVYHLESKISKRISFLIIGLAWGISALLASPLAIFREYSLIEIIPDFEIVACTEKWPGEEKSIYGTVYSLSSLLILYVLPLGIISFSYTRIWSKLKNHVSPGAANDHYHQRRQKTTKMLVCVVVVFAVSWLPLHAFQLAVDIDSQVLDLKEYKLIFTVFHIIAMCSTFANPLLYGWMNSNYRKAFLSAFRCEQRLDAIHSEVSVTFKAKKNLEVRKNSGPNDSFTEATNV
In words: IC50 for human NPY-Y2 blockade – cell-based, counter-screen for NPY-Y1 antagonist project, dose response (AID 1278). Type of test: functional.

Test [9] concerns the target T4, Neuropeptide Y receptor type 1 (Homo sapiens, UniProt P25929).
T4 sequence (P25929 whole entry): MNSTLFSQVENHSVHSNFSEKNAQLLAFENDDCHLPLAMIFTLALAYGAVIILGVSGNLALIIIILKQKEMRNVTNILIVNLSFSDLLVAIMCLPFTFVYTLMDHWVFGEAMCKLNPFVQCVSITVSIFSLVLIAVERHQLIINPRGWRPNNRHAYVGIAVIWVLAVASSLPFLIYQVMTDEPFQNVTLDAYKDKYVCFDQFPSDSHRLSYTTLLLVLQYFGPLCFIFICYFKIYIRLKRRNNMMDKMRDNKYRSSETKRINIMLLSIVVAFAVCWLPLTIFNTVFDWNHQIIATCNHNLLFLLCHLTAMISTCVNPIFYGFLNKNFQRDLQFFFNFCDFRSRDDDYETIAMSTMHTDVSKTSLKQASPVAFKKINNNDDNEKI
Nature of the test: IC50 of human NPY-Y1 blockers – cell-based, dose response (AID 1277). Type of test: functional.

Test [10] deals with Streptococcus sp. 'group A'. Nature of the test: Streptococcus pyogenes SK(-)GAS viability under kanamycin – luminescence, BacTiterGlo, confirmation, counter-screen for streptokinase expression inhibitor project, dose response (AID 1900). Type of test: functional, organism-based.
Test [11] is described as follows: viability loss of HPDE-C7K cells – cell-based, fluorescence, HTS, primary screen (AID 431). To be noted: Homo sapiens. Type of test: functional.

Broadly, the EC50 is the midpoint of the concentration-response curve. One may read the IC50 as the point on the concentration scale where inhibition reaches its midpoint.

Activity calls are given as the source filed them. Where only a bound is given, the exact number is not on record here.

Peroxisome proliferator-activated receptor gamma/Nuclear receptor coactivator 3, sequence (P37231 whole entry): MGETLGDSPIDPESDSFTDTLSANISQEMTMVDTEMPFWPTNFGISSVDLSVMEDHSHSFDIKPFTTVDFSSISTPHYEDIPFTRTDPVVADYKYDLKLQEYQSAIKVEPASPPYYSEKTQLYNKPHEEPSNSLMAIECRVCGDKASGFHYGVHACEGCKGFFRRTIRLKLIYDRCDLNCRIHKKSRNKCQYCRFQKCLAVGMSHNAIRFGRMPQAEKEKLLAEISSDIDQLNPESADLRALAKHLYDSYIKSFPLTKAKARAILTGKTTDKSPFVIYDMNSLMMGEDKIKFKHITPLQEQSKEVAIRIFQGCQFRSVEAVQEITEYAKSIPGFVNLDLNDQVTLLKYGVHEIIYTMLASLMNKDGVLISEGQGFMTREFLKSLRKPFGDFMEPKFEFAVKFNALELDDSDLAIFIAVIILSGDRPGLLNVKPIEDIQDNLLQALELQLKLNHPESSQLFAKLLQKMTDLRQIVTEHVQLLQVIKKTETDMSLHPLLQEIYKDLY
Peroxisome proliferator-activated receptor gamma/Nuclear receptor coactivator 3, sequence (Q9Y6Q9 whole entry, further chain): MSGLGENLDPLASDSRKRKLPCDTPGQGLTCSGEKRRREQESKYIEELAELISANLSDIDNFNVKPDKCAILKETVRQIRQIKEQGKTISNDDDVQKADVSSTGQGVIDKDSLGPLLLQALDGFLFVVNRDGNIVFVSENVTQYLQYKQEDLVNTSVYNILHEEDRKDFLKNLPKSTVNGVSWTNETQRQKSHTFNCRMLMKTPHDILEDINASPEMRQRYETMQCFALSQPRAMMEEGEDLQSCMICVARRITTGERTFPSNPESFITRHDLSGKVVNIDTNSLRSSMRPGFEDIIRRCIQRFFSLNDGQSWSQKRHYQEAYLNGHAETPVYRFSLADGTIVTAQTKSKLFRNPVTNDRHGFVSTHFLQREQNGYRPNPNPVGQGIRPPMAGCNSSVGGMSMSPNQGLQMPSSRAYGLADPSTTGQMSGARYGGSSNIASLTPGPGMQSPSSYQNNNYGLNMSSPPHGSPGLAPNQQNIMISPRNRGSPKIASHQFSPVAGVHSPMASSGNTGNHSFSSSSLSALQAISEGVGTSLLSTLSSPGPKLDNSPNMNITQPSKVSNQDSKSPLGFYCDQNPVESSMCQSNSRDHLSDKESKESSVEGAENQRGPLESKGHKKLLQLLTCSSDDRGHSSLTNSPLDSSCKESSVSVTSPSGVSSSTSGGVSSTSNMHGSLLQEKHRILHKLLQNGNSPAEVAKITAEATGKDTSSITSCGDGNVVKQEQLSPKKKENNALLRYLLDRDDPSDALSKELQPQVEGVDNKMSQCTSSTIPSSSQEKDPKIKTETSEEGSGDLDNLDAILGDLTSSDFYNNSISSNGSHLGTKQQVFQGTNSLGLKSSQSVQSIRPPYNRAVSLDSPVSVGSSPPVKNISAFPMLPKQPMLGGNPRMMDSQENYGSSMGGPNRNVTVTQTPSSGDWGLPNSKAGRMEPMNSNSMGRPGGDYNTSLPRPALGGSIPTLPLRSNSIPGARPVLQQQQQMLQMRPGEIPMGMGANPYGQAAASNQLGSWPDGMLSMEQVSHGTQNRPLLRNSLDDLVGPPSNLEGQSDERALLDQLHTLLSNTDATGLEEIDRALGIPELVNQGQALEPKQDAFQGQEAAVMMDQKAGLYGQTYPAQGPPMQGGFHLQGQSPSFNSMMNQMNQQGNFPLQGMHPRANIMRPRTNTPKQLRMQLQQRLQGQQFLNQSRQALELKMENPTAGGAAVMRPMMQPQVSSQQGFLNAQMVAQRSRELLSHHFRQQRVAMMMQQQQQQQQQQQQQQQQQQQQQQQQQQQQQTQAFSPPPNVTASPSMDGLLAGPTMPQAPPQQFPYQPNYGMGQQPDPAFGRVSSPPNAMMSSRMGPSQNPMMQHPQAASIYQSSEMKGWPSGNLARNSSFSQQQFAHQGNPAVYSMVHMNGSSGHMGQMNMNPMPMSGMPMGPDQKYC
Peroxisome proliferator-activated receptor gamma/Nuclear receptor coactivator 1, sequence (P37231 whole entry): as the sequence (P37231 whole entry) above
Peroxisome proliferator-activated receptor gamma/Nuclear receptor coactivator 1, sequence (Q15788 whole entry, further chain): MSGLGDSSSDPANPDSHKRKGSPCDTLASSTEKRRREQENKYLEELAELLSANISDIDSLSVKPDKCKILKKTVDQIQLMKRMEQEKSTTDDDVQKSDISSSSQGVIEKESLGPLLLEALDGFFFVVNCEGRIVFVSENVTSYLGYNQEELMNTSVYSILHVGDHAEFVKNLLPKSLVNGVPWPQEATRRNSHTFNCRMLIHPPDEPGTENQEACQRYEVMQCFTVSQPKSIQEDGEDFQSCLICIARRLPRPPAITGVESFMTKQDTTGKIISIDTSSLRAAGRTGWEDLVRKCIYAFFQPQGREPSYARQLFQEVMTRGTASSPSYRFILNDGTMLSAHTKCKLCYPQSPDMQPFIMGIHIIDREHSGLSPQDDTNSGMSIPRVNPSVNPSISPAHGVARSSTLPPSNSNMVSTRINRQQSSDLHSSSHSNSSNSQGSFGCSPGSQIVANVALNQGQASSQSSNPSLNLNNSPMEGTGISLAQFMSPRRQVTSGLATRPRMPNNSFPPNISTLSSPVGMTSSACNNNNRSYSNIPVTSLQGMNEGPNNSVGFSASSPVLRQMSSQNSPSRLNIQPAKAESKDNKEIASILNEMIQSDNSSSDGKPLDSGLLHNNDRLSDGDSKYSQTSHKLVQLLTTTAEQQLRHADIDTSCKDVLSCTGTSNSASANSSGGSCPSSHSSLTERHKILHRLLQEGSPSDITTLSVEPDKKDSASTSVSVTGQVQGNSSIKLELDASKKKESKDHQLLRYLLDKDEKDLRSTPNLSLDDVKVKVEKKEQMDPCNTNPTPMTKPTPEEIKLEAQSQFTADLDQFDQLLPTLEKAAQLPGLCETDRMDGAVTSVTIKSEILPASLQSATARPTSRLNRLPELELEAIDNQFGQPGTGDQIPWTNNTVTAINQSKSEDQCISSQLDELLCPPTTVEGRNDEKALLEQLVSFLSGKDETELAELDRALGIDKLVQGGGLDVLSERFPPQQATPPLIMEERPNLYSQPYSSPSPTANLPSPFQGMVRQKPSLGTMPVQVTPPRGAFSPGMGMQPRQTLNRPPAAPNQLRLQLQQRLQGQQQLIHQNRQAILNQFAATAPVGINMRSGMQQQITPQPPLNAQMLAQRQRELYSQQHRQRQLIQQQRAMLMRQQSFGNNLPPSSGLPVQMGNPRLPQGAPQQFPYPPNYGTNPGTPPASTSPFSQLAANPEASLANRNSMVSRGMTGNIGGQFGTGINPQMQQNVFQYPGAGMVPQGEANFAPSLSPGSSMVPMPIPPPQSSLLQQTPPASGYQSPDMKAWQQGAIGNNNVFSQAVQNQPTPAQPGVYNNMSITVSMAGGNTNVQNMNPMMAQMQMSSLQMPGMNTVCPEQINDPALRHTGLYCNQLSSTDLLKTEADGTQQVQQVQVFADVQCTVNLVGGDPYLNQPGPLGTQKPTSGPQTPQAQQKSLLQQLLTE

Regarding `CC(=O)NC1=NC(=O)/C(=C/c2cc(C)n(-c3ccc(NC(C)=O)cc3)c2C)S1`, the EC50 in [1], in [2] and in test [3] was > 79.4 µM (not active) throughout.

In the case of `CC(NC(=O)Nc1nnc(C(F)(F)F)s1)(C(F)(F)F)C(F)(F)F`, the EC50 in test [4] is 7.84 µM (active); in test [5], > 150 µM (not active); in [6], 8.76 µM (active); in test [10], 3.54 µM (active); in test [11] it was 14.4 µM (active). Also, the IC50 in test [7] was > 50 µM (inactive); in test [8], > 35 µM (not active); in test [9], > 35 µM (not active).

Take `CS(=O)(=O)N(CC(=O)NCc1ccncc1)Cc1ccc(Cl)cc1`: the EC50 in test [1], in test [2] and in [3] was > 79.4 µM (not active) in each case.
